{
  "source": "paper PMC4686814",
  "about": "(Nature communications, 2015)",
  "molecules": {"B1": {"name": "hVPS4B E235Q Ile124Glu (enzyme, human, UniProt O75351 1-444, looked up)", "chain": "MSSTSPNLQKAIDLASKAAQEDKAGNYEEALQLYQHAVQYFLHVVKYEAQGDKAKQSIRAKCTEYLDRAEKLKEYLKNKEKKAQKPVKEGQPSPADEKGNDSDGEGESDDPEKKKLQNQLQGAEVIERPNVKWSDVAGLEGAKEALKEAVILPIKFPHLFTGKRTPWRGILLFGPPGTGKSYLAKAVATEANNSTFFSISSSDLVSKWLGESEKLVKNLFQLARENKPSIIFIDQIDSLCGSRSENESEAARRIKTEFLVQMQGVGVDNDGILVLGATNIPWVLDSAIRRRFEKRIYIPLPEPHARAAMFKLHLGTTQNSLTEADFRELGRKTDGYSGADISIIVRDALMQPVRKVQSATHFKKVRGPSRADPNHLVDDLLTPCSPGDPGAIEMTWMDVPGDKLLEPVVSMSDMLRSLSNTKPTVNEHDLLKLKKFTEDFGQEG"}},
  "key": {"MsVps4ΔMIT [1]": {"molecular_target": "T1, MsVps4ΔMIT (Metallosphaera sedula, UniProt A4YHC5)", "T1 construct": "gene Msed_1672", "T1 sequence (A4YHC5 entry or part of it, stated change not applied)": "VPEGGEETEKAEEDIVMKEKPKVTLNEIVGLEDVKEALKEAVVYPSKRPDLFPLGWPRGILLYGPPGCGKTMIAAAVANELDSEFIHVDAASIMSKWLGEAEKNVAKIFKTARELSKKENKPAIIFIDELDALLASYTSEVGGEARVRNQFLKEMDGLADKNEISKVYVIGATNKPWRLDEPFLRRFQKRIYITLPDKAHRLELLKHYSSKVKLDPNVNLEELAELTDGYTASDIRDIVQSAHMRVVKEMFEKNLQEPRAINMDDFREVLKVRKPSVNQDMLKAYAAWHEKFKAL", "assay": "ITC, two-site model", "format": "binding"}, "MsVps4ΔMIT [2]": {"molecular_target": "T1, MsVps4ΔMIT", "assay": "ITC", "format": "binding"}, "[3]": {"molecular_target": "the molecule itself", "assay": "SEC; Superose 6; hVPS4B E235Q and mutants of it at 100 µM with 1 mM ATP and 5 mM MgCl2"}},
  "data": [
    {"molecule": "Nc1ncnc2c1ncn2[C@@H]1O[C@H](COP(=O)(O)OP(=O)(O)O)[C@@H](O)[C@H]1O", "note": "[ADP]", "values": [
      {"measurement": "Kd", "setting": "MsVps4ΔMIT [1]", "value": 0.4, "unit": "µM"}
    ]},
    {"molecule": "Nc1ncnc2c1ncn2[C@@H]1O[C@H](COP(=O)(O)OP(=O)(O)OP(=O)(O)O)[C@@H](O)[C@H]1O", "note": "[ATP]", "values": [
      {"measurement": "Kd", "setting": "MsVps4ΔMIT [2]", "value": 3.3, "unit": "µM"}
    ]},
    {"molecule": "B1", "values": [
      {"measurement": "stoichiometry N", "setting": "[3]", "value": 6}
    ]}
  ]
}
